In patent publication US20120301895A1, “METHODS OF MODULATING BINDING OF SON OF SEVENLESS TO PHOSPHATIDIC ACID AND IDENTIFYING COMPOUNDS THAT MODULATE SUCH BINDING” (THE RESEARCH FOUNDATION OF STATE UNIVERSITY OF NEW YORK, priority 2007, published 2012):

Molecular target: T1, PLD1 (Homo sapiens, UniProt Q13393)
T1 construct: made in house
T1 sequence (Q13393 1-1074): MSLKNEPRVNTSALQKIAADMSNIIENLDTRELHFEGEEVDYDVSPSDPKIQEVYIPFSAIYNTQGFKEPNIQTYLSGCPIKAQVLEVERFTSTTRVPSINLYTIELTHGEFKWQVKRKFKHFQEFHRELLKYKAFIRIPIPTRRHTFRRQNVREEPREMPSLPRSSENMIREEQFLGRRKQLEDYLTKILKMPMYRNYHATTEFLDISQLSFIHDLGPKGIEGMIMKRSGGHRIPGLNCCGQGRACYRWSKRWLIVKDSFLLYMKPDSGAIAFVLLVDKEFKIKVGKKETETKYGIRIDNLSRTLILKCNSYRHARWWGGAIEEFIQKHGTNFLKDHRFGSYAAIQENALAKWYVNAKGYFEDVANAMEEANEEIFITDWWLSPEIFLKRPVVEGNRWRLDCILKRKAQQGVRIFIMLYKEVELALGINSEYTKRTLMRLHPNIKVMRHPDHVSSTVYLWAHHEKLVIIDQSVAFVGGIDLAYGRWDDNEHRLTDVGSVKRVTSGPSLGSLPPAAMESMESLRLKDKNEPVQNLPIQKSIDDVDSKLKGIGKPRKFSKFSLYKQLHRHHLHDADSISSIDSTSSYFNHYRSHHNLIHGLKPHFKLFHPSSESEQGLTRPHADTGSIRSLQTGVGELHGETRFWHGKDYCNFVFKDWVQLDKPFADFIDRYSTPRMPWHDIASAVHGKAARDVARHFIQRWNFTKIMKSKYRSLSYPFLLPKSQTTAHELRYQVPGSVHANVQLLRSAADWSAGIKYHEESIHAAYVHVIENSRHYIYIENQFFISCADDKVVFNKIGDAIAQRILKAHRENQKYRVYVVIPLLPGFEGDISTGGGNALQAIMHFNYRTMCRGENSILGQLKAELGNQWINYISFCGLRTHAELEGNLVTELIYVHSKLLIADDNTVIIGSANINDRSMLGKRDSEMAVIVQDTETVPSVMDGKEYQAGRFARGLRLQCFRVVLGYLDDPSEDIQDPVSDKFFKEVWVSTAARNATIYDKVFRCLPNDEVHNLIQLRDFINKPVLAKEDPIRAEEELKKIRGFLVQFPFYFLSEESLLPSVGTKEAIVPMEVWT
Test: In vitro PLD activity, exogenous substrate assay, PLD1
Type: biochemical
Conditions: purified recombinant PLD1 with ARF-1, 30 min at 37° C.
Protocol: In FIG. 13A, MDA-MB-231 cells were plated as in FIGS. 12A-C and then shifted to either 10% serum or 0.5% serum overnight as indicated. Honokiol (20 μM) or control ethanol was then added for 4 hr as indicated, at which time the cells were harvested and the levels of PBt were determined as in FIGS. 12A-C. The experiment shown is representative of at least three independent experiments. In FIG. 13B, the effect of honokiol on the activity of PLD isoforms was measured using exogenous substrate assay as described previously (Henage et al., “Kinetic Analysis of a Mammalian Phospholipase D: Allosteric Modulation by Monomeric GTPases, Protein Kinase C, and Polyphosphoinositides,” J. Biol. Chem. 281:3408-17 (2006), which is hereby incorporated by reference in its entirety). […] The amount of background was determined and subtracted using a bovine serum albumin standard. […]
For in vivo PLD activity, cells were plated in 60 mm culture dishes in DMEM with 10% serum at a density that would allow them to grow to about 80% confluence after 2 days, then cells were shifted to DMEM containing 0.5% or 10% serum as indicated in the figure legends overnight. […] Briefly, PLD activity was measured by the release of [methyl-^3H] choline from [choline-methyl-^3H]dipalmitoyl-phosphatidylcholine. […]

C=CCc1ccc(O)c(-c2ccc(O)c(CC=C)c2)c1 [honokiol, Honokiol]
in vitro activity of PLD1: no significant effect
